Like-named read-outs stand apart in the source and are kept apart here.
Assays:
HepG2-A16-CD81EGFP cells [1] = settings: for IC50: read-out: Tox_IC50, HepG2 cytotoxicity
HepG2-A16-CD81EGFP cells [2] = assay: cells; settings: Homo sapiens; for IC50: HepG2, read-out: Tox IC50; for inhibition at 50 µM: HepG2, read-out: Tox max inhibition (%) @ 50 uM
[3] = tested on: Plasmodium berghei (Pb-Luc) exoerythrocytic-stage parasites; assay: microbe, parasite or virus in culture; settings: for IC50: read-out: PbLuc IC50, dose response, 1/3 dilutions, max conc. 10 or 50 uM, unit inferred
[4] = sheet 2nd round, maximal inhibition in dose response
[5] = HepG2, read-out: HepG2 Tox% @ 50 uM rep1
[6] = read-out: Inhibition% @ 50 uM rep1
[7] = read-out: Inhibition% @ 50 uM rep2
[8] = read-out: PbLuc max inhibition (%) @ 50 uM
[9] = HepG2, read-out: HepG2 Tox% @ 50 uM rep2

## CCCNC(=O)N1[C@H](C#N)[C@H](c2ccc(-c3cccc(OC)c3)cc2)[C@@H]1CO [BRD-K80906650-001-01-7]
HepG2-A16-CD81EGFP cells [1]; sheet "2nd round"
  IC50: > 10 µM
  Tox_max_inhibition (%): 45%

## CCCC#Cc1ccc2c(c1)O[C@H](CN(C)Cc1ccccn1)[C@H](C)CN([C@@H](C)CO)S2(=O)=O [BRD-K48766892-001-01-4]
HepG2-A16-CD81EGFP cells [1]; sheet "2nd round"
  IC50: > 10 µM
  Tox_max_inhibition (%): 7%

## CCCNC(=O)N1[C@H](C#N)[C@@H](c2ccccc2-c2cccc(C)c2)[C@@H]1CO [BRD-K35047119-001-01-1]
HepG2-A16-CD81EGFP cells [1]; 2nd round, maximal inhibition in dose series
  Tox_max_inhibition (%): 7%
HepG2-A16-CD81EGFP cells [1]; 2nd round, unit inferred
  IC50: > 10 µM

## Fc1cccc(CN2C[C@@H]3N[C@H](C2)C3c2ccc(/C=C/c3ccccc3)cc2)c1 (stereo partly shown) [BRD-K69682028-019-01-6]
HepG2-A16-CD81EGFP cells [1]; sheet "2nd round"
  IC50: > 10 µM
  Tox_max_inhibition (%): 16%

## Cc1ccc(S(=O)(=O)N2CC[C@H]3[C@H](CO)Nc4ccc(-c5cccc(C(=O)N(C)C)c5)cc4[C@H]32)cc1 [BRD-K64741770-001-01-3]
HepG2-A16-CD81EGFP cells [1]; sheet 2nd round
  IC50: > 10 µM
HepG2-A16-CD81EGFP cells [1]; [4]
  Tox_max_inhibition (%): 15%

## CCCNC(=O)N1[C@H](CO)[C@H](c2ccc(C#Cc3cccc(F)c3)cc2)[C@@H]1C#N [BRD-K10089781-004-02-1]
HepG2-A16-CD81EGFP cells [1]; sheet 2nd round
  IC50: > 10 µM
HepG2-A16-CD81EGFP cells [1]; [4]
  Tox_max_inhibition (%): 13%

## O=C(C[C@@H]1C[C@H]2c3cc(NC(=O)c4ccc5c(c4)OCO5)ccc3O[C@H]2[C@H](CO)O1)NCc1ccc(Oc2ccccc2)cc1 [BRD-K60334624-001-01-9]
HepG2-A16-CD81EGFP cells [1]; sheet 2nd round
  IC50: > 10 µM
HepG2-A16-CD81EGFP cells [1]; [4]
  Tox_max_inhibition (%): 4.54%

## COc1cccc(C(=O)NC(c2ccc(C)cc2)c2cc(Cl)c3cccnc3c2O)c1 (stereo not shown) [MMV665969]
HepG2-A16-CD81EGFP cells [2]; [5]
  cytotoxicity at 50 µM: 92%
HepG2-A16-CD81EGFP cells [2]
  IC50: 4.83 µM
  inhibition at 50 µM: 89%
[3]; [6]
  inhibition at 50 µM: 104%
[3]; [7]
  inhibition at 50 µM: 104%
[3]
  IC50: 1.65 µM
[3]; [8]
  inhibition at 50 µM: 101%

## Cc1ccc(C)c(-c2csc(Nc3ccc(C)c(C)c3)n2)c1 [MMV007654]
HepG2-A16-CD81EGFP cells [2]; [5]
  cytotoxicity at 50 µM: -26%
[3]; [6]
  inhibition at 50 µM: -107%
[3]; [7]
  inhibition at 50 µM: -33%

## CC(=O)NCCc1nc2ccccc2n1Cc1ccc(C(C)C)cc1 [MMV007617]
HepG2-A16-CD81EGFP cells [2]; [5]
  cytotoxicity at 50 µM: 81%
HepG2-A16-CD81EGFP cells [2]; [9]
  cytotoxicity at 50 µM: 80%
[3]; [6]
  inhibition at 50 µM: 104%
[3]; [7]
  inhibition at 50 µM: 106%

## Cc1ccc(CSCc2ccc(C(=O)NC3CC3)o2)cc1 [MMV007571]
HepG2-A16-CD81EGFP cells [2]; [5]
  cytotoxicity at 50 µM: 66%
HepG2-A16-CD81EGFP cells [2]; [9]
  cytotoxicity at 50 µM: 74%
[3]; [6]
  inhibition at 50 µM: 103%
[3]; [7]
  inhibition at 50 µM: 103%

## CCOC(=O)c1cnc2ccc(OC)cc2c1Nc1ccc(N2CCN(C)CC2)cc1 [MMV000704]
HepG2-A16-CD81EGFP cells [2]; [5]
  cytotoxicity at 50 µM: 97%
[3]; [6]
  inhibition at 50 µM: 101%
[3]; [7]
  inhibition at 50 µM: 102%

## Cc1ccc(C(=O)c2oc3ccc4c(C)cc(=O)oc4c3c2C)cc1 [MMV086103]
HepG2-A16-CD81EGFP cells [2]; [5]
  cytotoxicity at 50 µM: 40%
[3]; [6]
  inhibition at 50 µM: 103%
[3]; [7]
  inhibition at 50 µM: 103%

## CN(N=O)C1=C(NC2CCCCC2)C(=O)c2ccccc2C1=O [MMV667492]
HepG2-A16-CD81EGFP cells [2]; [5]
  cytotoxicity at 50 µM: 98%
[3]; [6]
  inhibition at 50 µM: 103%
[3]; [7]
  inhibition at 50 µM: 104%

## CCN(CC)CCNc1ccnc2cc(Cl)ccc12 [MMV006087]
HepG2-A16-CD81EGFP cells [2]; [5]
  cytotoxicity at 50 µM: 53%
HepG2-A16-CD81EGFP cells [2]; [9]
  cytotoxicity at 50 µM: 87%
[3]; [6]
  inhibition at 50 µM: 101%
[3]; [7]
  inhibition at 50 µM: 103%

## Oc1ccc(-c2nc(-c3ccc4oc5ccc(-c6[nH]c(-c7ccc(O)cc7)nc6-c6ccccc6)cc5c4c3)c(-c3ccccc3)[nH]2)cc1 [MMV000753]
HepG2-A16-CD81EGFP cells [2]; [5]
  cytotoxicity at 50 µM: 101%
HepG2-A16-CD81EGFP cells [2]
  IC50: > 50 µM
  inhibition at 50 µM: 39%
[3]; [6]
  inhibition at 50 µM: 104%
[3]; [7]
  inhibition at 50 µM: 104%
[3]
  IC50: 5.88 µM
[3]; [8]
  inhibition at 50 µM: 99%

## O=C(NCC(c1ccsc1)N1CCCCCC1)c1ccc(C(F)(F)F)cc1 (stereo not shown) [MMV396672]
HepG2-A16-CD81EGFP cells [2]; [5]
  cytotoxicity at 50 µM: 98%
HepG2-A16-CD81EGFP cells [2]; [9]
  cytotoxicity at 50 µM: 99%
[3]; [6]
  inhibition at 50 µM: 104%
[3]; [7]
  inhibition at 50 µM: 104%

## Cc1ccc(-c2cc3c(nn2)-c2ccccc2C3=O)cc1 [MMV666021]
HepG2-A16-CD81EGFP cells [2]; [5]
  cytotoxicity at 50 µM: 31%
HepG2-A16-CD81EGFP cells [2]; [9]
  cytotoxicity at 50 µM: 9%
[3]; [6]
  inhibition at 50 µM: 99%
[3]; [7]
  inhibition at 50 µM: 89%

## COc1ccc(C(=O)NC(c2ccc(Cl)cc2Cl)c2cc(Cl)c3cccnc3c2O)cc1 (stereo not shown) [MMV666054]
HepG2-A16-CD81EGFP cells [2]; [5]
  cytotoxicity at 50 µM: 98%
HepG2-A16-CD81EGFP cells [2]
  IC50: 12.7 µM
  inhibition at 50 µM: 88%
[3]; [6]
  inhibition at 50 µM: 100%
[3]; [7]
  inhibition at 50 µM: 102%
[3]
  IC50: 1.58 µM
[3]; [8]
  inhibition at 50 µM: 101%

## COc1ccc(C2NCCc3c2[nH]c2ccccc32)cc1CN1CCN(c2ccc(F)cc2)CC1 (stereo not shown) [MMV019690]
HepG2-A16-CD81EGFP cells [2]; [5]
  cytotoxicity at 50 µM: 101%
HepG2-A16-CD81EGFP cells [2]
  IC50: 10.8 µM
  inhibition at 50 µM: 100%
[3]; [6]
  inhibition at 50 µM: 103%
[3]; [7]
  inhibition at 50 µM: 103%
[3]
  IC50: 6.28 µM
[3]; [8]
  inhibition at 50 µM: 99%

## COc1cc(C(=O)ON=C(N)Cc2cccc3ccccc23)cc(OC)c1OC [MMV666687]
HepG2-A16-CD81EGFP cells [2]; [5]
  cytotoxicity at 50 µM: 100%
HepG2-A16-CD81EGFP cells [2]
  IC50: 17.1 µM
  inhibition at 50 µM: 100%
[3]; [6]
  inhibition at 50 µM: 102%
[3]; [7]
  inhibition at 50 µM: 103%
[3]
  IC50: 12.6 µM
[3]; [8]
  inhibition at 50 µM: 100%

## Cc1[nH]c(-c2ccc(F)cc2)cc1C(=O)NC1CCN(Cc2ccccc2)CC1 [MMV019738]
HepG2-A16-CD81EGFP cells [2]; [5]
  cytotoxicity at 50 µM: 97%
HepG2-A16-CD81EGFP cells [2]; [9]
  cytotoxicity at 50 µM: 98%
[3]; [6]
  inhibition at 50 µM: 103%
[3]; [7]
  inhibition at 50 µM: 102%
